Measured values as given in ChEMBL document CHEMBL4052785, “Discovery of (R)-5-(benzo[d][1,3]dioxol-5-yl)-7-((1-(vinylsulfonyl)pyrrolidin-2-yl)methyl)-7H-pyrrolo[2,3-d]pyrimidin-4-amine (B6) as a potent Bmx inhibitor for the treatment of NSCLC” (Bioorg Med Chem Lett, 2017).

Tests used:
[1] = molecular target: Dual specificity mitogen-activated protein kinase kinase 7 (Homo sapiens, UniProt O14733); test: Inhibition of recombinant human N-terminal GST-tagged MKK7beta (2 to end residues) expressed in Escherichia coli preincubated for 5 mins followed by substrate addition after 30 to 60 mins in presence of ATP by fluorescence assay
Dual specificity mitogen-activated protein kinase kinase 7, sequence (O14733 whole entry, the tested form may be a part): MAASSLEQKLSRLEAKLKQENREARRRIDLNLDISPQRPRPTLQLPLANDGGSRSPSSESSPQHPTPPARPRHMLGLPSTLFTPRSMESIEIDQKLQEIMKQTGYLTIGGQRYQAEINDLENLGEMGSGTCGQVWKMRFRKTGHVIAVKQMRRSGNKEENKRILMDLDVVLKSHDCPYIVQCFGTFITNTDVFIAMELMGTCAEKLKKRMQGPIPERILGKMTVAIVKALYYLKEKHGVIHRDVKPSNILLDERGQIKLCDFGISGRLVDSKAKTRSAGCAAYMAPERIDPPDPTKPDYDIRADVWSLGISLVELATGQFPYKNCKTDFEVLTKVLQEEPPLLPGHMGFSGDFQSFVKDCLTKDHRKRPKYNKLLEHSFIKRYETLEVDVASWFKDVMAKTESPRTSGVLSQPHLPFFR

[2] = molecular target: Receptor-interacting serine/threonine-protein kinase 2 (Homo sapiens, UniProt O43353); test: Inhibition of recombinant human N-terminal His6-tagged RIPK2 (1 to 299 residues) expressed in baculovirus Sf21 insect cells preincubated for 5 mins followed by substrate addition after 30 to 60 mins in presence of ATP by fluorescence assay
Receptor-interacting serine/threonine-protein kinase 2, sequence (O43353 whole entry, the tested form may be a part): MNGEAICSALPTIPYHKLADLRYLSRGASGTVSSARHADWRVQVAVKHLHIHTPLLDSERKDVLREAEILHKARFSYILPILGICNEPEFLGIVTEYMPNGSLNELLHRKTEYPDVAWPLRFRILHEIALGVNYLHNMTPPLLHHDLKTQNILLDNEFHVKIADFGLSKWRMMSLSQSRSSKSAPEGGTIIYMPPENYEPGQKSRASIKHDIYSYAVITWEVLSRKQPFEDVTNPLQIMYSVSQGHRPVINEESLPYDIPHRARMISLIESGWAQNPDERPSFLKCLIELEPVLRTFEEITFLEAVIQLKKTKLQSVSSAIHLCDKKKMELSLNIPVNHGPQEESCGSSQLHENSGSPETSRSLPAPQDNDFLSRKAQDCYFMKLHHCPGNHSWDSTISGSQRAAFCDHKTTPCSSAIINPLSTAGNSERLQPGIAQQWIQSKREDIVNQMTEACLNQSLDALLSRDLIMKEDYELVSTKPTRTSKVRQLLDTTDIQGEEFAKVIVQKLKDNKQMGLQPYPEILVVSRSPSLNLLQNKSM

Homo sapiens [3] = species on record: Homo sapiens; test: Selectivity ratio of IC50 for recombinant human full length N-terminal His6-tagged BRK to IC50 for human full length N-terminal His6-tagged BMX
NCI-H1975 = test: Antiproliferative activity against human NCI-H1975 cells harboring EGFR L858R/T790M mutant after 72 hrs by MTT assay; format: functional, cell-based; details: NCI-H1975, 72 h
[4] = molecular target: Tyrosine-protein kinase Lck (Homo sapiens, UniProt P06239); test: Inhibition of recombinant human full length N-terminal His6-tagged LCK expressed in Sf21 insect cells preincubated for 5 mins followed by substrate addition after 30 to 60 mins in presence of ATP by fluorescence assay
Tyrosine-protein kinase Lck, sequence (P06239 whole entry, the tested form may be a part): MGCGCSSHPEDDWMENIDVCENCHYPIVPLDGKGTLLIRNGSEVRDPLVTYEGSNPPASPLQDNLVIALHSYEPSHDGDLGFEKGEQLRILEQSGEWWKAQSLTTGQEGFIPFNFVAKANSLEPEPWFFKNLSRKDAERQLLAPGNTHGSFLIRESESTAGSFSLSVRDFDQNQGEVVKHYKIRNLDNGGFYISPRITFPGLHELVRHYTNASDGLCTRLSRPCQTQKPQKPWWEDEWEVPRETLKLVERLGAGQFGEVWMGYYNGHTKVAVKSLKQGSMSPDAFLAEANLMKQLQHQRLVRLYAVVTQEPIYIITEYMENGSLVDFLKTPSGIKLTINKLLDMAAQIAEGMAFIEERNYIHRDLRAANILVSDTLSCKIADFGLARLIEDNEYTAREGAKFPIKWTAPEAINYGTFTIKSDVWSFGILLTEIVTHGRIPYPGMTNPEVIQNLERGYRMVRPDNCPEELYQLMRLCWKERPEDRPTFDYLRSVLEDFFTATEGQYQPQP

Homo sapiens [5] = species on record: Homo sapiens; test: Selectivity ratio of IC50 for recombinant human N-terminal His6-tagged RIPK2 (1 to 299 residues) to IC50 for human full length N-terminal His6-tagged BMX
Mus musculus [6] = test: Toxicity in nude mouse xenografted with human NCI-H1975 cells assessed as body weight loss at 25 mg/kg administered qd via oral gavage for 18 days measured on day 14; format: organism-based; details: in vivo, 432 h
Mus musculus [7] = test: Toxicity in nude mouse xenografted with human NCI-H1975 cells assessed as abnormal behavior at 25 mg/kg administered qd via oral gavage for 18 days measured on day 14; format: organism-based; details: in vivo, 432 h
Homo sapiens [8] = species on record: Homo sapiens; test: Selectivity ratio of IC50 for recombinant human full length N-terminal His6-tagged FYN to IC50 for human full length N-terminal His6-tagged BMX
[9] = molecular target: Serine/threonine-protein kinase Nek2 (Homo sapiens, UniProt P51955); test: Inhibition of recombinant human full length N-terminal His6-tagged NEK2 expressed in baculovirus Sf21 insect cells preincubated for 5 mins followed by substrate addition after 30 to 60 mins in presence of ATP by fluorescence assay
Serine/threonine-protein kinase Nek2, sequence (P51955 whole entry): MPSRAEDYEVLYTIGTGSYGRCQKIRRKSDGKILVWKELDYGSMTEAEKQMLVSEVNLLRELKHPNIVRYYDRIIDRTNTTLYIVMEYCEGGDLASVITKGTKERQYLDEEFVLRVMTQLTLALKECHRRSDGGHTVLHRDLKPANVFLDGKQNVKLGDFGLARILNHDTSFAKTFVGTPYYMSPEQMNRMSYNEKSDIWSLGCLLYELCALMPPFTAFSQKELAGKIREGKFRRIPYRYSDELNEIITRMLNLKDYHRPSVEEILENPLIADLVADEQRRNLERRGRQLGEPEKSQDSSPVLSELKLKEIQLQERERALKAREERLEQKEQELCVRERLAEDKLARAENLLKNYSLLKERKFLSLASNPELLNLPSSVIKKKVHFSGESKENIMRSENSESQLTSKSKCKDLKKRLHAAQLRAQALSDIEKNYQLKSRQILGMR

[10] = molecular target: Tyrosine-protein kinase CSK (Homo sapiens, UniProt P41240); test: Inhibition of recombinant human full length N-terminal GST-tagged CSK expressed in Escherichia coli BL21 (DE3) cells preincubated for 5 mins followed by biotinyl-beta Abeta Abeta AEEEPQYEEIPIYLELLP substrate addition after 30 to 60 mins in presence of ATP by fluorescence assay
Homo sapiens [11] = species on record: Homo sapiens; test: Selectivity ratio of IC50 for recombinant human N-terminal His6-tagged PLK1 to IC50 for human full length N-terminal His6-tagged BMX
[12] = molecular target: Macrophage colony-stimulating factor 1 receptor (Homo sapiens, UniProt P07333); test: Inhibition of recombinant human N-terminal His6-tagged FMS (538 to end residues) expressed in baculovirus Sf21 insect cells preincubated for 5 mins followed by substrate addition after 30 to 60 mins in presence of ATP by fluorescence assay
Macrophage colony-stimulating factor 1 receptor, sequence (P07333 whole entry): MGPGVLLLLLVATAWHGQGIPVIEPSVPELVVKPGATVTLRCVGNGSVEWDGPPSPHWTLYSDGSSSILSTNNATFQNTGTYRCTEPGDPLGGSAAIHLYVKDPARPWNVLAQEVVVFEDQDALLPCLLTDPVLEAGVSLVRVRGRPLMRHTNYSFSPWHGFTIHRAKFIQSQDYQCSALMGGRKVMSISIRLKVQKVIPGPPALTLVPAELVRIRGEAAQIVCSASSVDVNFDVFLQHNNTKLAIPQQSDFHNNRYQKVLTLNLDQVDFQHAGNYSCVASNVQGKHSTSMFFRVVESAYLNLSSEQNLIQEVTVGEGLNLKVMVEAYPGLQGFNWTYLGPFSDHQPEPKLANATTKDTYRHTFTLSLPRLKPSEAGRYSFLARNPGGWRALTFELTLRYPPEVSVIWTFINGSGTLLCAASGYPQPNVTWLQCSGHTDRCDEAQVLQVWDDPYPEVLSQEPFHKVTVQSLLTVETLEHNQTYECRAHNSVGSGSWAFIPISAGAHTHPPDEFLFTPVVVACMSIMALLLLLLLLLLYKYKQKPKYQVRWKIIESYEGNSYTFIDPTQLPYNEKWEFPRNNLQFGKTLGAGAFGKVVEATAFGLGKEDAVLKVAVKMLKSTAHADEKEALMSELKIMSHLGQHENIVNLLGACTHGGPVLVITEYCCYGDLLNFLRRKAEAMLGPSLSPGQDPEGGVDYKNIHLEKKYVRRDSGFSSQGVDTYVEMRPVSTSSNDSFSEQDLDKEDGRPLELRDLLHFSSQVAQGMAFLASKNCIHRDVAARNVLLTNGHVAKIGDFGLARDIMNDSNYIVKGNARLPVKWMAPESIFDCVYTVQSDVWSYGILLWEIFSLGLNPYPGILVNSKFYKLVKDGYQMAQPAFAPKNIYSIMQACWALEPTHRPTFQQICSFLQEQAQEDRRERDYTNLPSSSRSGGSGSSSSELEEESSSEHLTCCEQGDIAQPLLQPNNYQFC

Homo sapiens [13] = species on record: Homo sapiens; test: Selectivity ratio of IC50 for recombinant human full length N-terminal GST-tagged CSK to IC50 for human full length N-terminal His6-tagged BMX
[14] = molecular target: Tyrosine-protein kinase ITK/TSK (Homo sapiens, UniProt Q08881); test: Inhibition of recombinant human N-terminal His6-tagged ITK (352 to 617 residues) expressed in baculovirus Sf21 insect cells preincubated for 5 mins followed by Ulight-TK peptide substrate addition after 30 to 60 mins in presence of ATP by fluorescence assay
Tyrosine-protein kinase ITK/TSK, sequence (Q08881 whole entry, the tested form may be a part): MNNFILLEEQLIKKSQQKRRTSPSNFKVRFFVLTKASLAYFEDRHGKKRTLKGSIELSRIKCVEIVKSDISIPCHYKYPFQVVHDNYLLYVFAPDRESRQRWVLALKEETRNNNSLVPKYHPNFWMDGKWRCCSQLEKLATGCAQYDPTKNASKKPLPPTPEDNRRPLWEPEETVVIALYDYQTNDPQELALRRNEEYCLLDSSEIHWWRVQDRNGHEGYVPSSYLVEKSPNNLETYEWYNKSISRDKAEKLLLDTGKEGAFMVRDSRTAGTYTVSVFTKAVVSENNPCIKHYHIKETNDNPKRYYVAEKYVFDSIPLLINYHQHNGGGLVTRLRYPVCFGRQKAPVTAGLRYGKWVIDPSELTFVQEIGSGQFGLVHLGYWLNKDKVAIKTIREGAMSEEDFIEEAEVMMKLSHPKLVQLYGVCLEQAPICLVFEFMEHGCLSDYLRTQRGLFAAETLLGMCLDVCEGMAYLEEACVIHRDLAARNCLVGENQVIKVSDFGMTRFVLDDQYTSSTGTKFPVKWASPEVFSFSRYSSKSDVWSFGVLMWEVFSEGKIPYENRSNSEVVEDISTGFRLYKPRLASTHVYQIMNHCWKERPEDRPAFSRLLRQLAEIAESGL

Homo sapiens [15] = species on record: Homo sapiens; test: Selectivity ratio of IC50 for BLK (unknown origin) to IC50 for human full length N-terminal His6-tagged BMX
[16] = molecular target: Ribosomal protein S6 kinase alpha-1 (Homo sapiens, UniProt Q15418); test: Inhibition of RSK1 (unknown origin) preincubated for 5 mins followed by substrate addition after 30 to 60 mins in presence of ATP by fluorescence assay
Ribosomal protein S6 kinase alpha-1, sequence (Q15418 whole entry): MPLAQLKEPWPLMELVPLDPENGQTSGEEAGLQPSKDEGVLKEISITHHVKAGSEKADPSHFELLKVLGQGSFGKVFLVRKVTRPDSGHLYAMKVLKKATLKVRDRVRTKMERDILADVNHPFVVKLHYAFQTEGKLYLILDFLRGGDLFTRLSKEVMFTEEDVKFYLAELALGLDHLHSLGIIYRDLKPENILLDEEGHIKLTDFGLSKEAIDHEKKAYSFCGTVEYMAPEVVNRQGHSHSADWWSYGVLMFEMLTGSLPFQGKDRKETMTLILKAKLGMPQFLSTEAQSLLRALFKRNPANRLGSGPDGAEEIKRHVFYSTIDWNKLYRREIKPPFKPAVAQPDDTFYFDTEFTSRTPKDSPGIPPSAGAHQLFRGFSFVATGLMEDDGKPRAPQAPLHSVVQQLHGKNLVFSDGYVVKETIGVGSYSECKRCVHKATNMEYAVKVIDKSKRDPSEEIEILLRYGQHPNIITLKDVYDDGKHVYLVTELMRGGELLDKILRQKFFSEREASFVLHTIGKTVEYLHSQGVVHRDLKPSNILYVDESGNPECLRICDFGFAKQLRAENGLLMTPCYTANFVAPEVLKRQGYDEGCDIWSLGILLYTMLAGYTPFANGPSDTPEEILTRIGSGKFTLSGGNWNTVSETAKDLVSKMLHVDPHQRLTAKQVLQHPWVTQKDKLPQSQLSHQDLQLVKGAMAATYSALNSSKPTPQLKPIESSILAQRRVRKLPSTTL

- IC50 [1]: 0.189 µM
- IC50 [2]: 0.403 µM
- Ratio IC50 (Homo sapiens [3]): 5.9
- IC50 (NCI-H1975): 0.92 µM
- IC50 [4]: 0.195 µM
- Ratio IC50 (Homo sapiens [5]): 11.3
- Ratio IC50 (Homo sapiens [8]): 12
- IC50 [9]: > 10 µM
- IC50 [10]: 2.83 µM
- Ratio IC50 (Homo sapiens [11]): > 280
- IC50 [12]: 4.7 µM
- Ratio IC50 (Homo sapiens [13]): 79.2
- IC50 [14]: 5.65 µM
- Ratio IC50 (Homo sapiens [15]): 2.1
- IC50 [16]: > 10 µM
Structure (SMILES): C=CS(=O)(=O)N1CCC[C@@H]1Cn1cc(-c2ccc3c(c2)OCO3)c2c(N)ncnc21
- Activity (Mus musculus [6]): Non-Toxic
- Activity (Mus musculus [7]): Non-Toxic
